Measurements from PubChem BioAssay (NCI).
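96-well plates; 48 h exposure; 5 concentrations. Endpoints by linear interpolation between flanking doses. Not reached: highest tested concentration assigned. TGI: concentration producing complete growth inhibition.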

Assays:
Experiment in all cases: NCI anticancer screen, dose series, 48 h
NCI-H460 lung = system: NCI-H460 lung
T-47D breast = system: T-47D breast
COLO 205 colon = system: COLO 205 colon
HL-60(TB) leukemia = system: HL-60(TB) leukemia
UACC-62 melanoma = system: UACC-62 melanoma
SK-MEL-5 melanoma = system: SK-MEL-5 melanoma
CCRF-CEM leukemia = system: CCRF-CEM leukemia
XF 498 CNS = system: XF 498 CNS
K-562 leukemia = system: K-562 leukemia
OVCAR-8 ovarian = system: OVCAR-8 ovarian
UO-31 renal = system: UO-31 renal
SF-539 CNS = system: SF-539 CNS
SNB-75 CNS = system: SNB-75 CNS
MDA-N = system: MDA-N
M19-MEL melanoma = system: M19-MEL melanoma
CAKI-1 renal = system: CAKI-1 renal
DMS 114 small cell lung = system: DMS 114 small cell lung
HCC-2998 colon = system: HCC-2998 colon
HT29 colon = system: HT29 colon
MDA-MB-231 breast = system: MDA-MB-231 breast
RXF-631 renal = system: RXF-631 renal
MALME-3M melanoma = system: MALME-3M melanoma
SK-MEL-2 melanoma = system: SK-MEL-2 melanoma
OVCAR-5 ovarian = system: OVCAR-5 ovarian
MCF7 breast = system: MCF7 breast
SN12C renal = system: SN12C renal
DLD-1 colon = system: DLD-1 colon
SK-MEL-28 melanoma = system: SK-MEL-28 melanoma
HCT-116 colon = system: HCT-116 colon
A498 renal = system: A498 renal
SF-268 CNS = system: SF-268 CNS
SK-OV-3 ovarian = system: SK-OV-3 ovarian
DU-145 prostate = system: DU-145 prostate
LOX IMVI melanoma = system: LOX IMVI melanoma
786-0 renal = system: 786-0 renal
RXF 393 renal = system: RXF 393 renal
BT-549 breast = system: BT-549 breast
KM20L2 colon = system: KM20L2 colon
NCI-H522 lung = system: NCI-H522 lung
HS 578T breast = system: HS 578T breast
TK-10 renal = system: TK-10 renal
PC-3 prostate = system: PC-3 prostate
HOP-62 NSCLC = system: HOP-62 NSCLC
HOP-92 NSCLC = system: HOP-92 NSCLC
DMS 273 small cell lung = system: DMS 273 small cell lung
HCT-15 colon = system: HCT-15 colon
OVCAR-3 ovarian = system: OVCAR-3 ovarian
MOLT-4 leukemia = system: MOLT-4 leukemia
OVCAR-4 ovarian = system: OVCAR-4 ovarian
KM12 colon = system: KM12 colon
MDA-MB-435 = system: MDA-MB-435
NCI-H23 lung = system: NCI-H23 lung
IGROV1 ovarian = system: IGROV1 ovarian
SR leukemia = system: SR leukemia
SW-620 colon = system: SW-620 colon
LXFL 529 NSCLC = system: LXFL 529 NSCLC
NCI/ADR-RES ovarian = system: NCI/ADR-RES ovarian
RPMI-8226 leukemia = system: RPMI-8226 leukemia
SF-295 CNS = system: SF-295 CNS
A549 NSCLC = system: A549 NSCLC
EKVX NSCLC = system: EKVX NSCLC
SNB-19 CNS = system: SNB-19 CNS
UACC-257 melanoma = system: UACC-257 melanoma
M14 melanoma = system: M14 melanoma
ACHN renal = system: ACHN renal
U251 CNS = system: U251 CNS
NCI-H226 lung = system: NCI-H226 lung
SNB-78 CNS = system: SNB-78 CNS

## CC(C)c1ccc(C2NC(=S)NC3=C2c2ccccc2C3=O)cc1 (stereo unspecified)
NCI-H460 lung
  TGI: > 67.3 µM
T-47D breast
  TGI: 35.5 µM
COLO 205 colon
  TGI: > 59.2 µM
HL-60(TB) leukemia
  TGI: 32.5 µM
UACC-62 melanoma
  TGI: > 52.8 µM
SK-MEL-5 melanoma
  TGI: 52.8 µM
CCRF-CEM leukemia
  TGI: > 68 µM
XF 498 CNS
  TGI: > 100 µM
K-562 leukemia
  TGI: > 60 µM
OVCAR-8 ovarian
  TGI: > 62.1 µM
UO-31 renal
  TGI: > 58.2 µM
SF-539 CNS
  TGI: 37.8 µM
SNB-75 CNS
  TGI: 36.7 µM
MDA-N
  TGI: 20.6 µM
M19-MEL melanoma
  TGI: > 100 µM
CAKI-1 renal
  TGI: > 58.5 µM
DMS 114 small cell lung
  TGI: 58.8 µM
HCC-2998 colon
  TGI: > 51.7 µM
HT29 colon
  TGI: > 59 µM
MDA-MB-231 breast
  TGI: 31 µM
RXF-631 renal
  TGI: > 100 µM
MALME-3M melanoma
  TGI: > 62.9 µM
SK-MEL-2 melanoma
  TGI: 41.7 µM
OVCAR-5 ovarian
  TGI: > 64.2 µM
MCF7 breast
  TGI: 23.1 µM
SN12C renal
  TGI: > 61.4 µM
DLD-1 colon
  TGI: > 100 µM
SK-MEL-28 melanoma
  TGI: 57.9 µM
HCT-116 colon
  TGI: > 58.4 µM
A498 renal
  TGI: > 60.8 µM
SF-268 CNS
  TGI: > 52.4 µM
SK-OV-3 ovarian
  TGI: > 61.7 µM
DU-145 prostate
  TGI: 31.7 µM
LOX IMVI melanoma
  TGI: 35.1 µM
786-0 renal
  TGI: > 60 µM
RXF 393 renal
  TGI: 23.9 µM
BT-549 breast
  TGI: 31.6 µM
KM20L2 colon
  TGI: 64.5 µM
NCI-H522 lung
  TGI: 41.9 µM
HS 578T breast
  TGI: 42.1 µM
TK-10 renal
  TGI: > 57.1 µM
PC-3 prostate
  TGI: 23.5 µM
HOP-62 NSCLC
  TGI: > 57.1 µM
HOP-92 NSCLC
  TGI: 48.3 µM
DMS 273 small cell lung
  TGI: > 100 µM
HCT-15 colon
  TGI: > 51.9 µM
OVCAR-3 ovarian
  TGI: > 56.7 µM
MOLT-4 leukemia
  TGI: > 65 µM
OVCAR-4 ovarian
  TGI: 53.8 µM
KM12 colon
  TGI: > 58.7 µM
MDA-MB-435
  TGI: 21.4 µM
NCI-H23 lung
  TGI: > 59.2 µM
IGROV1 ovarian
  TGI: > 54.6 µM
SR leukemia
  TGI: 30.6 µM
SW-620 colon
  TGI: > 78.2 µM
LXFL 529 NSCLC
  TGI: > 100 µM
NCI/ADR-RES ovarian
  TGI: 33.3 µM
RPMI-8226 leukemia
  TGI: > 62.4 µM
SF-295 CNS
  TGI: > 52.4 µM
A549 NSCLC
  TGI: > 62.4 µM
EKVX NSCLC
  TGI: > 58.6 µM
SNB-19 CNS
  TGI: > 55.2 µM
UACC-257 melanoma
  TGI: > 58.7 µM
M14 melanoma
  TGI: > 57 µM
ACHN renal
  TGI: > 55.9 µM
U251 CNS
  TGI: > 58.7 µM
NCI-H226 lung
  TGI: > 64.6 µM

## COc1ccc2c3c([nH]c(=O)c2c1C(=O)O)-c1ccccc1CC3
NCI-H460 lung
  TGI: > 100 µM
COLO 205 colon
  TGI: > 100 µM
HL-60(TB) leukemia
  TGI: > 100 µM
SK-MEL-5 melanoma
  TGI: > 100 µM
CCRF-CEM leukemia
  TGI: > 100 µM
XF 498 CNS
  TGI: > 100 µM
K-562 leukemia
  TGI: > 100 µM
UO-31 renal
  TGI: > 100 µM
SF-539 CNS
  TGI: > 100 µM
SNB-75 CNS
  TGI: > 100 µM
CAKI-1 renal
  TGI: > 100 µM
DMS 114 small cell lung
  TGI: > 100 µM
HCC-2998 colon
  TGI: > 100 µM
HT29 colon
  TGI: > 100 µM
RXF-631 renal
  TGI: > 100 µM
MALME-3M melanoma
  TGI: > 100 µM
SK-MEL-2 melanoma
  TGI: > 100 µM
OVCAR-5 ovarian
  TGI: > 100 µM
SN12C renal
  TGI: > 100 µM
DLD-1 colon
  TGI: > 100 µM
SK-MEL-28 melanoma
  TGI: > 100 µM
HCT-116 colon
  TGI: > 100 µM
A498 renal
  TGI: > 100 µM
SF-268 CNS
  TGI: > 100 µM
SK-OV-3 ovarian
  TGI: > 100 µM
LOX IMVI melanoma
  TGI: > 100 µM
786-0 renal
  TGI: > 100 µM
RXF 393 renal
  TGI: > 100 µM
KM20L2 colon
  TGI: > 100 µM
NCI-H522 lung
  TGI: > 100 µM
TK-10 renal
  TGI: > 100 µM
HOP-62 NSCLC
  TGI: > 100 µM
HOP-92 NSCLC
  TGI: > 100 µM
DMS 273 small cell lung
  TGI: > 100 µM
HCT-15 colon
  TGI: > 100 µM
OVCAR-3 ovarian
  TGI: > 100 µM
MOLT-4 leukemia
  TGI: > 100 µM
OVCAR-4 ovarian
  TGI: > 100 µM
KM12 colon
  TGI: > 100 µM
NCI-H23 lung
  TGI: > 100 µM
IGROV1 ovarian
  TGI: > 100 µM
SR leukemia
  TGI: > 100 µM
SW-620 colon
  TGI: > 100 µM
LXFL 529 NSCLC
  TGI: > 100 µM
RPMI-8226 leukemia
  TGI: > 100 µM
SF-295 CNS
  TGI: > 100 µM
A549 NSCLC
  TGI: > 100 µM
EKVX NSCLC
  TGI: > 100 µM
SNB-19 CNS
  TGI: > 100 µM
SNB-78 CNS
  TGI: > 100 µM
M14 melanoma
  TGI: > 100 µM
ACHN renal
  TGI: > 100 µM
U251 CNS
  TGI: > 100 µM
NCI-H226 lung
  TGI: > 100 µM
